≈ marks a conversion by molar mass, not a printed value. Where a SMILES comes first, the peptide text is derived from it. Bridges are numbered along the chain shown (N, C = ends). [ ]: non-standard residue; d: D form. S5 = C=CCCC[C@](C)(N)C(=O)O
Tests used:
C. albicans 901 = test: microbe, parasite or virus in culture
Procedure: (§1) The in vitro antifungal activities of the target peptides were evaluated according to protocols from the CLSI. The broth microdilution method was used to determine the minimum inhibitory concentration (MIC) of the target peptides in 96-well plates. Fluconazole was used as a reference drug.
(§2) Clinical isolates of C. albicans SC5314, 901, 904, C. tropicalis ATCC20026 and clinical isolate 895, C. glabrata ATCC1182 and clinical isolate 896, C. krusei ATCC2340, and C. parapsilosis ATCC22010 are from the collection library in the Drug Discovery and Development Center, Naval Medical University, Shanghai, China. C. auris clinical isolates are provided by Linqi Wang (Institute of Microbiology, Chinese Academy of Sciences) and Changbin Chen (Institut Pasteur of Shanghai, Chinese Academy of Sciences). All strains were cultured in YPD (1% yeast extract, 2% peptone, and 2% glucose) liquid medium overnight at 30 °C with shaking at 220 rpm.
(§3) The MICs of chemicals against all strains were determined by the micro broth dilution method according to the Clinical and Laboratory Standards Institute (Wayne PA, Reference Method for Broth Dilution Antifungal Susceptibility Testing of yeasts, approved Standard M27-A3, 3 rd ed; Clinical and Laboratory Standards Institute (CLSI): USA, 2008). The initial concentration of fungal suspension in RPMI 1640 medium was 3–5 × 10^3 colonies forming unit (CFU)/mL, which was added to 96-well plates. Peptides were prepared in dimethyl sulfoxide (DMSO) with an initial stored concentration of 6.4 mg/mL. Serial dilutions were made based on the CLSI M27 guide to obtaining the final concentrations ranging from 0.125 to 64 μg/mL for fluconazole and 0.25 to 128 μg/mL for peptides […]. The plates were incubated at 30 °C for 48 h. Optical density was measured at 630 nm, and background optical densities were subtracted from that of each well. The definition of MIC is the lowest concentration at which 80% of tested strains cannot grow.

C. albicans 904 = test: microbe, parasite or virus in culture
Procedure: as §1, §2, §3

C. albicans SC5314 = test: microbe, parasite or virus in culture
Procedure: as §1, §2, §3

C. auris 918 = test: microbe, parasite or virus in culture
Procedure: as §1, §2, §3

C. auris 919 = test: microbe, parasite or virus in culture
Procedure: as §1, §2, §3

C. glabrata 896 = test: microbe, parasite or virus in culture
Procedure: as §1, §2, §3

C. glabrata ATCC 1182 = test: microbe, parasite or virus in culture
Procedure: as §1, §2, §3

C. krusei ATCC 2340 = test: microbe, parasite or virus in culture
Procedure: as §1, §2, §3

[1] = tested on: C. parapsilosis ATCC 22010; test: microbe, parasite or virus in culture
Procedure: as §1, §2, §3

C. tropicalis 895 = test: microbe, parasite or virus in culture
Procedure: as §1, §2, §3

C. tropicalis ATCC 20026 = test: microbe, parasite or virus in culture
Procedure: as §1, §2, §3

chymotrypsin = test: Chymotrypsin digestion assay (proteolytic stability); conditions: chymotrypsin 10 ng/µL in PBS 50 mM, 2 mM CaCl2, pH 7.4, room temperature; 130 µL of 1 mM DMSO peptide stock + 910 µL enzyme; sampled 0, 0.5, 1.5, 2, 4.5 h; HPLC at 214 nm
Procedure: Their susceptibility toward chymotrypsin degradation was tested in pH 7.4 PBS buffer at room temperature, containing 2 mM of CaCl2, and the percentages of remaining peptides were determined by HPLC. […] The corresponding HPLC charts for the determination of peptide residues are in the Supplementary Material.
Figure 4 Proteolytic stability of Aurein1.2, Sau-1, Sau-2, Sau-5, and Sau-9. They were dissolved in chymotrypsin solution (10 ng/μL, 50 mM, containing 2 mM of CaCl2, pH = 7.4). The percentages of the remaining peptides were monitored by HPLC.
Aurein1.2, Sau-1, Sau-2, Sau-5, and Sau-9, were dissolved in dimethyl sulfoxide to prepare a reserve solution with a concentration of 1 mM. Chymotrypsin was dissolved in PBS buffer (50 mM, containing 2 mM of CaCl2, pH = 7.4) to obtain a final concentration of 10 ng/µL. Then the 130 µL peptide solutions were incubated with 910 µL of chymotrypsin solution at room temperature. Then 130 µL of digestion mixture was taken at 0, 0.5, 1.5, 2 or 4.5 h, and then quenched with 50 µL of hydrochloric acid (1 mM). High-performance liquid chromatography (HPLC) was used to detect the residues of linear peptides and stapled Aurein1.2 peptides at 214 nm at a different time.

[2] = Helicity by circular dichroism; format: physicochemical; conditions: CD, 50 μM peptide in phosphate buffer/trifluoroethanol (7:3), 20 °C, calculated on [θ]222
Procedure: We use circular dichroism (CD) spectroscopy to probe the structural changes of Aurein1.2. According to the formula for calculating the helix reported in the previous relevant literature, we calculated the helicities of Aurein1.2 and the stapled peptides.
Figure 3 CD spectra of Aurein1.2 and its analogues. The peptides were dissolved in a solution of phosphate buffer and trifluoroethanol (7:3) and reached a concentration of 50 μM. The helicities of these peptides were calculated on the [θ]222. TEXT PRINTED IN THE PICTURE: Aurein1.2: helicity: 56.6% | Sau-1: helicity: 60.2% | Sau-2: helicity: 52.5% | Sau-3: helicity: 72.3% | Sau-4: helicity: 73.5% | Sau-5: helicity: 61.0% | Sau-6: helicity: 49.9% | Sau-7: helicity: 65.0% | Sau-8: helicity: 83.1% | Sau-9: helicity: 67.8%
The linear peptide and the stapled Aurein1.2 peptides were dissolved to form a sample with a concentration of 50 μM. The solvent consists of phosphate-buffered solution and trifluoroethanol (7:3). We used a […] quartz tube to obtain CD spectra on a Jasco-715 spectrophotometer at 20 °C. The measurement parameters were set up as follows: wavelength, 190–255 nm; speed, 20 nm min^−1; step resolution, 1.0 nm. And we accumulated the data twice. All spectral data were subtracted from the background. […] The helicity of each peptide was calculated according to the equation in the literature.

Row | Compound | Minimum inhibitory concentration (MIC) (C. albicans 901; 901, 48 h) [µg/mL] | Minimum inhibitory concentration (MIC) (C. albicans 904; 904, 48 h) [µg/mL] | Minimum inhibitory concentration (MIC) (C. albicans SC5314; SC5314, 48 h) [µg/mL] | Minimum inhibitory concentration (MIC) (C. auris 918; 918, 48 h) [µg/mL] | Minimum inhibitory concentration (MIC) (C. auris 919; 919, 48 h) [µg/mL] | Minimum inhibitory concentration (MIC) (C. glabrata 896; 896, 48 h) [µg/mL] | Minimum inhibitory concentration (MIC) (C. glabrata ATCC 1182; ATCC 1182, 48 h) [µg/mL] | Minimum inhibitory concentration (MIC) (C. krusei ATCC 2340; ATCC 2340, 48 h) [µg/mL] | Minimum inhibitory concentration (MIC) ([1]; ATCC 22010, 48 h) [µg/mL] | Minimum inhibitory concentration (MIC) (C. tropicalis 895; 895, 48 h) [µg/mL] | Minimum inhibitory concentration (MIC) (C. tropicalis ATCC 20026; ATCC 20026, 48 h) [µg/mL] | proteolytic stability, remaining peptide (chymotrypsin) | other results
1 | CC[C@H](C)[C@@H]1NC(=O)[C@@](C)(NC(=O)[C@H](CC(=O)O)NC(=O)[C@H](Cc2ccccc2)NC(=O)[C@H](CC(C)C)NC(=O)CNC(C)=O)CCCC=CCCC[C@@](C)(C(=O)N[C@@H](C)C(=O)N[C@@H](CCC(=O)O)C(=O)N[C@@H](CO)C(=O)N[C@@H](Cc2ccccc2)C(N)=O)NC(=O)[C@H](CCCCN)NC(=O)[C@H](CCCCN)NC1=O [Sau-5] (Ac-GLFD[S5]IKK[S5]AESF-NH2; staple 5-9) | >128 | >128 | 16 (≈ 10.4 µM) | >128 | >128 | >128 | >128 | >128 | >128 | 16 (≈ 10.4 µM) | >128 | remain relatively stable over time | –
2 | CC[C@H](C)[C@@H]1NC(=O)[C@H]([C@@H](C)CC)NC(=O)[C@@](C)(NC(=O)[C@H](Cc2ccccc2)NC(=O)[C@H](CC(C)C)NC(=O)CNC(C)=O)CCCC=CCCC[C@@](C)(C(=O)N[C@H](C(=O)N[C@@H](C)C(=O)N[C@@H](CCC(=O)O)C(=O)N[C@@H](CO)C(=O)N[C@@H](Cc2ccccc2)C(N)=O)[C@@H](C)CC)NC(=O)[C@H](CCCCN)NC1=O [Sau-4] (Ac-GLF[S5]IIK[S5]IAESF-NH2; staple 4-8) | >128 | >128 | >64 | >128 | >128 | >128 | >128 | >128 | >128 | >128 | >128 | – | –
3 | Ac-GLFDIIKKIAESF-NH2 [reference compound] | – | – | – | – | – | – | – | – | – | – | – | disintegrated almost completely by 4.5 h | Minimum inhibitory concentration (MIC) (C. albicans 901; C. albicans 901, fluconazole-resistant clinical isolate, RPMI 1640, 30 °C, 48 h, OD 630 nm, 80% inhibition): >128 µg/mL; Minimum inhibitory concentration (MIC) (C. albicans 904; C. albicans 904, RPMI 1640, 30 °C, 48 h, OD 630 nm, 80% inhibition): >128 µg/mL; Minimum inhibitory concentration (MIC) (C. albicans SC5314; C. albicans SC5314, RPMI 1640, 3–5 × 10^3 CFU/mL, 30 °C, 48 h, OD 630 nm, 80% inhibition): >64 µg/mL; Minimum inhibitory concentration (MIC) (C. auris 918; C. auris clinical isolate 918, RPMI 1640, 30 °C, 48 h, OD 630 nm, 80% inhibition): >128 µg/mL; Minimum inhibitory concentration (MIC) (C. auris 919; C. auris clinical isolate 919, RPMI 1640, 30 °C, 48 h, OD 630 nm, 80% inhibition): >128 µg/mL; Minimum inhibitory concentration (MIC) (C. glabrata 896; C. glabrata clinical isolate 896, RPMI 1640, 30 °C, 48 h, OD 630 nm, 80% inhibition): >128 µg/mL; Minimum inhibitory concentration (MIC) (C. glabrata ATCC 1182; C. glabrata ATCC 1182, RPMI 1640, 30 °C, 48 h, OD 630 nm, 80% inhibition): >128 µg/mL; Minimum inhibitory concentration (MIC) (C. krusei ATCC 2340; C. krusei ATCC 2340, RPMI 1640, 30 °C, 48 h, OD 630 nm, 80% inhibition): >128 µg/mL; Minimum inhibitory concentration (MIC) ([1]; C. parapsilosis ATCC 22010, RPMI 1640, 30 °C, 48 h, OD 630 nm, 80% inhibition): >128 µg/mL; Minimum inhibitory concentration (MIC) (C. tropicalis 895; C. tropicalis 895, fluconazole-resistant clinical isolate, RPMI 1640, 30 °C, 48 h, OD 630 nm, 80% inhibition): >128 µg/mL; Minimum inhibitory concentration (MIC) (C. tropicalis ATCC 20026; C. tropicalis ATCC 20026, RPMI 1640, 30 °C, 48 h, OD 630 nm, 80% inhibition): >128 µg/mL; helicity [2]: 56.6%

— paper PMC8389037, “Design, Synthesis and Antifungal Activity of Stapled Aurein1.2 Peptides” (Antibiotics, 2021)
